Assay results from PubChem BioAssay (NCI).
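Cultured in 96-well plates, cells were exposed to test compound for 48 hours across five concentrations. GI50: concentration for 50% inhibition of growth. TGI: total growth inhibition.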

Legend:
Assay in all cases: inhibition of tumour cell growth, NCI panel, 48 h
RPMI-8226 leukemia = tested on: RPMI-8226 leukemia
UO-31 renal = tested on: UO-31 renal
A549 NSCLC = tested on: A549 NSCLC
SK-OV-3 ovarian = tested on: SK-OV-3 ovarian
TK-10 renal = tested on: TK-10 renal
NCI-H23 lung = tested on: NCI-H23 lung
SF-295 CNS = tested on: SF-295 CNS
SW-620 colon = tested on: SW-620 colon
HCT-116 colon = tested on: HCT-116 colon
CCRF-CEM leukemia = tested on: CCRF-CEM leukemia
SN12C renal = tested on: SN12C renal
HCC-2998 colon = tested on: HCC-2998 colon
SF-268 CNS = tested on: SF-268 CNS
U251 CNS = tested on: U251 CNS
K-562 leukemia = tested on: K-562 leukemia
SR leukemia = tested on: SR leukemia
NCI-H522 lung = tested on: NCI-H522 lung
NCI-H226 lung = tested on: NCI-H226 lung
NCI/ADR-RES ovarian = tested on: NCI/ADR-RES ovarian
PC-3 prostate = tested on: PC-3 prostate
OVCAR-8 ovarian = tested on: OVCAR-8 ovarian
SNB-19 CNS = tested on: SNB-19 CNS
OVCAR-4 ovarian = tested on: OVCAR-4 ovarian
786-0 renal = tested on: 786-0 renal
CAKI-1 renal = tested on: CAKI-1 renal
UACC-257 melanoma = tested on: UACC-257 melanoma
LOX IMVI melanoma = tested on: LOX IMVI melanoma
RXF 393 renal = tested on: RXF 393 renal
HOP-62 NSCLC = tested on: HOP-62 NSCLC
SK-MEL-28 melanoma = tested on: SK-MEL-28 melanoma
SK-MEL-2 melanoma = tested on: SK-MEL-2 melanoma
HT29 colon = tested on: HT29 colon
OVCAR-5 ovarian = tested on: OVCAR-5 ovarian
MOLT-4 leukemia = tested on: MOLT-4 leukemia
BT-549 breast = tested on: BT-549 breast
HCT-15 colon = tested on: HCT-15 colon
HOP-92 NSCLC = tested on: HOP-92 NSCLC
COLO 205 colon = tested on: COLO 205 colon
MCF7 breast = tested on: MCF7 breast
EKVX NSCLC = tested on: EKVX NSCLC
IGROV1 ovarian = tested on: IGROV1 ovarian
M14 melanoma = tested on: M14 melanoma
KM12 colon = tested on: KM12 colon
MDA-MB-231 breast = tested on: MDA-MB-231 breast
DU-145 prostate = tested on: DU-145 prostate
SF-539 CNS = tested on: SF-539 CNS
SNB-75 CNS = tested on: SNB-75 CNS
HL-60(TB) leukemia = tested on: HL-60(TB) leukemia
A498 renal = tested on: A498 renal
HS 578T breast = tested on: HS 578T breast
MDA-MB-435 = tested on: MDA-MB-435
T-47D breast = tested on: T-47D breast
SK-MEL-5 melanoma = tested on: SK-MEL-5 melanoma
MALME-3M melanoma = tested on: MALME-3M melanoma
ACHN renal = tested on: ACHN renal
NCI-H460 lung = tested on: NCI-H460 lung
OVCAR-3 ovarian = tested on: OVCAR-3 ovarian

`CCN1CCN(c2nc(C)cc(NCc3cc(Nc4ccnc5cc(Cl)ccc45)ccc3F)n2)CC1` gave a GI50 (RPMI-8226 leukemia) of 0.981 µM, a TGI (RPMI-8226 leukemia) of 4.32 µM and a GI50 (UO-31 renal) of 1.31 µM. The TGI (UO-31 renal) was 2.99 µM, the GI50 (A549 NSCLC) was 3.54 µM and the TGI (A549 NSCLC) was 13.9 µM. The GI50 (SK-OV-3 ovarian) was 4.14 µM, the TGI (SK-OV-3 ovarian) was 15 µM and the GI50 (TK-10 renal) was 2.39 µM. For the same molecule, the TGI (TK-10 renal) was 6.04 µM, the GI50 (NCI-H23 lung) was 2.62 µM and the TGI (NCI-H23 lung) was 13 µM. It also gave a GI50 (SF-295 CNS) of 1.05 µM, a TGI (SF-295 CNS) of 2.61 µM and a GI50 (SW-620 colon) of 1.78 µM. For the same molecule, the TGI (SW-620 colon) was 4.81 µM, the GI50 (HCT-116 colon) was 1.01 µM and the TGI (HCT-116 colon) was 2.75 µM. For the same molecule, the GI50 (CCRF-CEM leukemia) was 2.06 µM, the TGI (CCRF-CEM leukemia) was 15.2 µM and the GI50 (SN12C renal) was 1.94 µM. The TGI (SN12C renal) was 6.41 µM, the GI50 (HCC-2998 colon) was 1.78 µM and the TGI (HCC-2998 colon) was 3.89 µM. The GI50 (SF-268 CNS) was 1.89 µM, the TGI (SF-268 CNS) was 5.79 µM and the GI50 (U251 CNS) was 1.95 µM. It also gave a TGI (U251 CNS) of 5.44 µM, a GI50 (K-562 leukemia) of 0.663 µM and a TGI (K-562 leukemia) of 4.95 µM. It also gave a GI50 (SR leukemia) of 1.3 µM, a TGI (SR leukemia) of 5.89 µM and a GI50 (NCI-H522 lung) of 3.02 µM. It also gave a TGI (NCI-H522 lung) of 7.77 µM, a GI50 (NCI-H226 lung) of 2.82 µM and a TGI (NCI-H226 lung) of 10.3 µM. It also gave a GI50 (NCI/ADR-RES ovarian) of 3.07 µM, a TGI (NCI/ADR-RES ovarian) of 15.1 µM and a GI50 (PC-3 prostate) of 1.72 µM. It also gave a TGI (PC-3 prostate) of 8.66 µM, a GI50 (OVCAR-8 ovarian) of 3.2 µM and a TGI (OVCAR-8 ovarian) of 13.7 µM. It also gave a GI50 (SNB-19 CNS) of 2.91 µM, a TGI (SNB-19 CNS) of 13.1 µM and a GI50 (OVCAR-4 ovarian) of 1.59 µM. For the same molecule, the TGI (OVCAR-4 ovarian) was 7.7 µM, the GI50 (786-0 renal) was 1.54 µM and the TGI (786-0 renal) was 3.13 µM. It also gave a GI50 (CAKI-1 renal) of 1.83 µM, a TGI (CAKI-1 renal) of 4.72 µM and a GI50 (UACC-257 melanoma) of 1.89 µM. For the same molecule, the TGI (UACC-257 melanoma) was 3.79 µM, the GI50 (LOX IMVI melanoma) was 1.02 µM and the TGI (LOX IMVI melanoma) was 2.34 µM. For the same molecule, the GI50 (RXF 393 renal) was 1.27 µM, the TGI (RXF 393 renal) was 3 µM and the GI50 (HOP-62 NSCLC) was 1.58 µM. The TGI (HOP-62 NSCLC) was 4.57 µM, the GI50 (SK-MEL-28 melanoma) was 1.7 µM and the TGI (SK-MEL-28 melanoma) was 3.37 µM. The GI50 (SK-MEL-2 melanoma) was 2.12 µM, the TGI (SK-MEL-2 melanoma) was 4.1 µM and the GI50 (HT29 colon) was 1.96 µM. For the same molecule, the TGI (HT29 colon) was 6.17 µM, the GI50 (OVCAR-5 ovarian) was 2.2 µM and the TGI (OVCAR-5 ovarian) was 6.71 µM. The GI50 (MOLT-4 leukemia) was 2.44 µM, the TGI (MOLT-4 leukemia) was 16.6 µM and the GI50 (BT-549 breast) was 1.62 µM. It also gave a TGI (BT-549 breast) of 4.28 µM, a GI50 (HCT-15 colon) of 1.46 µM and a TGI (HCT-15 colon) of 3.66 µM. For the same molecule, the GI50 (HOP-92 NSCLC) was 1.21 µM, the TGI (HOP-92 NSCLC) was 4.07 µM and the GI50 (COLO 205 colon) was 1.77 µM. It also gave a TGI (COLO 205 colon) of 3.95 µM, a GI50 (MCF7 breast) of 1.81 µM and a TGI (MCF7 breast) of 5.31 µM. The GI50 (EKVX NSCLC) was 3.03 µM, the TGI (EKVX NSCLC) was 14 µM and the GI50 (IGROV1 ovarian) was 2.2 µM. It also gave a TGI (IGROV1 ovarian) of 7.27 µM, a GI50 (M14 melanoma) of 1.45 µM and a TGI (M14 melanoma) of 3.12 µM. The GI50 (KM12 colon) was 2.95 µM, the TGI (KM12 colon) was 10.5 µM and the GI50 (MDA-MB-231 breast) was 1.44 µM. It also gave a TGI (MDA-MB-231 breast) of 3.56 µM, a GI50 (DU-145 prostate) of 3.23 µM and a TGI (DU-145 prostate) of 12.1 µM. The GI50 (SF-539 CNS) was 1.76 µM, the TGI (SF-539 CNS) was 3.37 µM and the GI50 (SNB-75 CNS) was 1.37 µM. For the same molecule, the TGI (SNB-75 CNS) was 3.52 µM, the GI50 (HL-60(TB) leukemia) was 2.22 µM and the TGI (HL-60(TB) leukemia) was 4.55 µM. It also gave a GI50 (A498 renal) of 1.94 µM, a TGI (A498 renal) of 4.01 µM and a GI50 (HS 578T breast) of 1.72 µM. It also gave a TGI (HS 578T breast) of 5.29 µM, a GI50 (MDA-MB-435) of 1.5 µM and a TGI (MDA-MB-435) of 2.91 µM. It also gave a GI50 (T-47D breast) of 1.73 µM, a TGI (T-47D breast) of 5.07 µM and a GI50 (SK-MEL-5 melanoma) of 1.7 µM. For the same molecule, the TGI (SK-MEL-5 melanoma) was 3.12 µM, the GI50 (MALME-3M melanoma) was 1.78 µM and the TGI (MALME-3M melanoma) was 3.66 µM. It also gave a GI50 (ACHN renal) of 2.47 µM, a TGI (ACHN renal) of 7.4 µM and a GI50 (NCI-H460 lung) of 1.56 µM. The TGI (NCI-H460 lung) was 3.67 µM, the GI50 (OVCAR-3 ovarian) was 1.96 µM and the TGI (OVCAR-3 ovarian) was 4.93 µM.
